How the values were obtained:
S100P/RAGE function = biological target: T1, S100P/RAGE function (Homo sapiens, UniProt P25815); settings: in vitro studies; cited from earlier work
T1 sequence (P25815 1-95): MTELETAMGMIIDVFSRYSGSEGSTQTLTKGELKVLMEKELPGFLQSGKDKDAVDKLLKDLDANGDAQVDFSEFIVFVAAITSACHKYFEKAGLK

Panc-1 cells [1] = assay: Matrigel invasion assay, Panc-1; assay type: cell-based, Human; settings: data not shown
Procedure: (§1) Compound 2 was one of seventeen compounds from the virtual screen that were subjected to a Matrigel invasion assay (Corning®, USA) screening against BxPC-3 and Panc-1 pancreatic cancer cells.
(§2) All reagents for in vitro studies were purchased from Sigma Aldrich (Dorset, UK) unless otherwise specified. Human pancreatic cancer cells, Panc-1 (ATCC® CRL-1469™) and BxPC-3 (ATCC® CRL-1687™), were purchased from LGC Standards (LGC Ltd., Middlesex, UK). Both were cultured in their respective culture medium—Dulbecco Modified Eagle Medium (DMEM) for Panc-1 and RPMI-1640 for BxPC-3 supplemented with 10% v/v Foetal Bovine Serum (FBS), 200U Penicillin/Streptomycin solution, and 2 mM L-glutamine. Both cells were maintained at 37° C. in a 5% humidified CO2 atmosphere and passaged at least three times a week when they have reached about 70% confluency using a standardised trypsinisation protocol. […]
(§3) Matrigel invasion assay were carried out using transwell inserts with 8-μm pore size (BD-Bioscience, Oxford, UK) and Biocoat Matrigel Invasion plates (BD-Bioscience, Oxford, UK). […] The number of cells from five adjacent fields of view from each of the membranes were counted at a ×10 magnification to obtain the average number of cells per field. Data are expressed as the percent invasion through the Matrigel matrix and membrane relative to the invasion through the control membrane.

BxPC-3 cells [2] = assay: Matrigel invasion assay, BxPC-3; assay type: cell-based, Human; settings: 48 h
Procedure: FIG. 2 illustrates the effect of 2 and cromolyn (100 μM) BxPC-3 invasion. FIG. 2A illustrates the results when compound 2 was added to serum-free medium in the upper compartment of Matrigel invasion chamber along with the BxPC-3 cells; while media with 10% serum was added to lower chamber. After 48 hours, cells that had invaded onto the lower surface of the membrane were stained using Giemsa stain and cells in 5 different fields were counted for invasion studies. Results are expressed as the mean±SEM. P value of <0.05 (*), <0.01 (**) and <0.001 (***) was determined relative to control using 2-Way ANOVA. Photographs of representative membranes for cells after Giemsa staining when the cells were exposed in FIGS. 2B, 2C, 2D and 2E;
as §1
as §2, with “L-glutamine.” for “L-glutamine. Both cells were maintained at 37° C. in a 5% humidified CO2 atmosphere and passaged at least three times a week when they have reached about 70% confluency using a standardised trypsinisation protocol.”
as §3

BxPC-3 cells [3] = assay: MTS cell proliferation assay, BxPC-3; assay type: cell-based, Human; settings: for anti-proliferative effect on BxPC-3: 1 and 10 μM
Procedure: (§4) FIG. 3 illustrates the anti-proliferative effect of cromolyn on pancreatic cancer cells. FIG. 3A illustrates BxPC-3, and FIG. 3B illustrates Panc-1 cells. Cells were seeded overnight (10^4 cells/well) in 96 well plates in complete medium supplemented with 10% v/v FBS, 2 mM L-glutamine and 200 U Penicillin/Streptomycin solution. Compounds were serially diluted into the wells and cell proliferation assessed using MTS assay after 24, 48, and 72 hours. Results are expressed as mean±SEM with n=4. P value of <0.05 (*), <0.01 (**), <0.001 (***) and <0.0001 (****) was determined relative to control using 2-Way ANOVA. Post-test comparisons were made using Bonferroni test at 95% confidence interval;
FIG. 4 illustrates the anti-proliferative effects of compounds 2 (A), 3 (B), 8 (C), 26 (D) and 7 (E) on BxPC-3 cells. BxPC-3 cells were seeded overnight (10^4 cells/well) in 96-well plates in complete RPMI-1640 medium supplemented with 10% v/v FBS, 2 mM L-glutamine and 200 U Penicillin/Streptomycin solution. Compounds were serially diluted into the wells and cell proliferation assessed using MTS assay after 24, 48, and 72 hours. Results are expressed as mean±SEM with n=4. P value of <0.05 (*), <0.01 (**), <0.001 (***) and <0.0001 (****) was determined relative to control using 2-Way ANOVA. Post-test comparisons were made using Bonferroni test at 95% confidence interval;
(§5) All reagents for in vitro studies were purchased from Sigma Aldrich (Dorset, UK) unless otherwise specified. Human pancreatic cancer cells, Panc-1 (ATCC® CRL-1469™) and BxPC-3 (ATCC® CRL-1687™), were purchased from LGC Standards (LGC Ltd., Middlesex, UK). Both were cultured in their respective culture medium—Dulbecco Modified Eagle Medium (DMEM) for Panc-1 and RPMI-1640 for BxPC-3 supplemented with 10% v/v Foetal Bovine Serum (FBS), 200U Penicillin/Streptomycin solution, and 2 mM L-glutamine. Both cells were maintained at 37° C. in a 5% humidified CO2 atmosphere and passaged at least three times a week when they have reached about 70% confluency using a standardised trypsinisation protocol. Cromolyn was purchased as a sodium salt while compounds 2, 3, 7, 8 and 26 were synthesised, characterised and purified at the University of Hertfordshire. To prepare stock concentrations (10 mM), cromolyn was dissolved in distilled water while compounds 2, 3, 7, 8 and 26 were dissolved in DMSO.
(§6) Pancreatic cancer cells (1×10^5 cells/mL) in 100 μL complete cell culture medium were plated in 96-well plates (Sigma-Aldrich, Poole, UK) and incubated overnight at 37° C., 5% CO2 atmosphere. Cromolyn and compounds 2, 3, 7, 8 and 26 were prepared from stocks of 10 mM in serum-free medium and serially diluted to give 1, 10, 100 and 1000 μM. Control samples for this study included cells without any drugs, cell samples with DMSO at the corresponding concentration(s) and media-only samples. Cells were incubated with test compounds for 24, 48 and 72 h. At each time point i.e. 24, 48 and 72 h, CellTiter 960 AQueous Non-Radioactive Cell Proliferation Assay (MTS) (Promega, UK) was added to each well (1:5). Plates were incubated for 90 minutes before reading the absorbance at 492 nm using a Multiskan Ascent 96/384 plate reader (Thermo Scientific, Loughborough, UK). The experiments were repeated three times.
For data analysis, background noise (media only wells) was subtracted from all wells. DMSO absorbance at 1, 10, 100 and 1000 μM was subtracted from wells with sample compounds before an average of all four replicates was taken. Data is plotted as mean from three repeats ±SEM with p value set at 0.05.

Panc-1 cells [4] = assay: MTS cell proliferation assay, Panc-1; assay type: cell-based, Human
Procedure: as §4
FIG. 5 illustrates anti-proliferative effect of compounds 2 (A), 3 (B), 8 (C), 26 (D) and 7 (E) on Panc-1 cells. Panc-1 cells were seeded overnight (10^4 cells/well) in 96-well plates in complete DMEM medium supplemented with 10% v/v FBS, 1% v/v L-glutamine and 200 U Penicillin/Streptomycin solution. Compounds were serially diluted into the wells and cell proliferation analysed using MTS assay after 24, 48, and 72 hours. Results are expressed as mean±SEM with n=4. P value of <0.05 (*), <0.01 (**), <0.001 (***) and <0.0001 (****) was determined relative to control using 2-Way ANOVA. Post-test comparisons were made Bonferroni test at 95% confidence interval; and
as §5, with “To prepare stock concentrations (10 mM), cromolyn was dissolved in distilled water while compounds 2, 3, 7, 8 and 26 were dissolved in DMSO.” left out
Pancreatic cancer cells (1×10^5 cells/mL) in 100 μL complete cell culture medium were plated in 96-well plates (Sigma-Aldrich, Poole, UK) and incubated overnight at 37° C., 5% CO2 atmosphere. […] Plates were incubated for 90 minutes before reading the absorbance at 492 nm using a Multiskan Ascent 96/384 plate reader (Thermo Scientific, Loughborough, UK). […]
For data analysis, background noise (media only wells) was subtracted from all wells. DMSO absorbance at 1, 10, 100 and 1000 μM was subtracted from wells with sample compounds before an average of all four replicates was taken. […]

[5] = Solubility in the culture media of the proliferation assay; assay type: physicochemical; settings: at 100 μM and above
Procedure: as §6

S100P binding to RAGE = biological target: T2, S100P binding to RAGE (Homo sapiens, UniProt P25815); assay: S100P/RAGE functional assay (ELISA of S100P-RAGE binding); settings: initial results
T2 sequence (P25815 1-95): T1 sequence (P25815 1-95)
Procedure: FIGS. 6A to 6H illustrate the effect of drugs on the binding between 1 μM S100P and 30 nM RAGE in ELISA assay wherein n=3 from one plate.
ELISA assay of S100P-RAGE binding was carried out using the method of Padilla et al. (Padilla, L., Dakhel, S., & Hernandez, J. (2014). S100 to receptor for advanced glycation end-products binding assay: Looking for inhibitors. Biochemical and Biophysical Research Communications, 446(1), 404-409. doi:10.1016/j.bbrc.2014.02.143). FIGS. 6A to 6H illustrate the effect of drugs on the binding between 1 μM S100P and 30 nM RAGE in ELISA assay wherein n=3 from one plate.

BxPC-3 cells [6] = assay: Trypan blue counting of BxPC-3 cells; assay type: cell-based, Human; settings: 1 μM
[7] = in vivo; cited from earlier work
[8] = except at the higher concentration of 1000 μM

## 5-methyl cromolyn
S100P/RAGE function
  concentration inhibiting S100P/RAGE function: 100 nmol/L

## O=C(O)c1cccc(N2C(=O)C3C4c5ccccc5C([N+](=O)[O-])(c5ccccc54)C3C2=O)c1 (centres unmarked) [Compound 2, 3-(9-Nitro-12,14-dioxo-9,10-dihydro-9,10-[3,4]epipyrroloanthracen-13-yl)benzoic acid]
Panc-1 cells [1]
  effect on invasion of Panc-1 cells: No effect
BxPC-3 cells [2]; 100 μM
  reduction in invasion of BxPC-3 cells across the Matrigel matrix: 17%
BxPC-3 cells [2]; 500 μM
  reduction in invasion of BxPC-3 cells across the Matrigel matrix: 100%
BxPC-3 cells [3]; all three concentrations, after 72 h, p<0.001
  inhibition of growth of BxPC-3 relative to control: noticeable inhibition of growth
Panc-1 cells [4]
  anti-proliferation effect on Panc-1 cells: a similar effect was also observed

## CCOC(=O)c1cccc(N2C(=O)C3C4c5ccccc5C([N+](=O)[O-])(c5ccccc54)C3C2=O)c1 (centres unmarked) [Compound 3, Ethyl 3-(9-nitro-12,14-dioxo-9,10-dihydro-9,10-[3,4]epipyrroloanthracen-13-yl)benzoate]
[5]
  solubility issues in the culture media: precipitating in the culture media
BxPC-3 cells [3]; after 24 h
  anti-proliferative effect on BxPC-3 compared to 2: more pronounced anti-proliferative effect
BxPC-3 cells [3]; after 48 h
  state of BxPC-3 cells compared to the control: the cells appear to be recovering albeit only slightly

## O=C1C2C3c4ccccc4C([N+](=O)[O-])(c4ccccc43)C2C(=O)N1c1ccccc1 (centres unmarked) [Compound 7, 9-Nitro-13-phenyl-9,10-dihydro-9,10-[3,4]epipyrroloanthracene-12,14-dione]
[5]
  solubility issues in the culture media: precipitating in the culture media
BxPC-3 cells [3]
  anti-proliferative effect on BxPC-3: inhibited proliferation
Panc-1 cells [4]
  anti-proliferation effect on Panc-1 cells: inhibition was unfortunately observed

## O=C(O)c1ccc(N2C(=O)C3C4c5ccccc5C([N+](=O)[O-])(c5ccccc54)C3C2=O)cc1 (centres unmarked) [Compound 8, 4-(9-Nitro-12,14-dioxo-9,10-dihydro-9,10-[3,4]epipyrroloanthracen-13-yl)benzoic acid]
[5]
  solubility issues in the culture media: precipitating in the culture media
BxPC-3 cells [3]; 1 μM
  metabolic activity of BxPC-3 cells: no metabolic activity was observed
BxPC-3 cells [3]
  anti-proliferative effect on BxPC-3: more pronounced
S100P binding to RAGE
  inhibition of S100P binding to RAGE: nanomolar inhibition
BxPC-3 cells [6]
  viability of BxPC-3 cells by trypan blue counting: still viable

## O=C(O)c1cccc(N2C(=O)C3C4c5ccccc5C(c5ccccc54)C3C2=O)c1 (centres unmarked) [Compound 26, 3-(12,14-Dioxo-9,10-dihydro-9,10-[3,4]epipyrroloanthracen-13-yl)benzoic acid]
BxPC-3 cells [3]
  anti-proliferative effect on BxPC-3: inhibited proliferation
Panc-1 cells [4]
  anti-proliferation effect on Panc-1 cells: inhibition was unfortunately observed

## O=C(O)c1cc(=O)c2c(OCC(O)COc3cccc4oc(C(=O)O)cc(=O)c34)cccc2o1 [cromolyn, reference compound]
BxPC-3 cells [2]; 100 μM
  reduction in invasion of BxPC-3 cells across the Matrigel matrix: 20%
BxPC-3 cells [3]; [8]
  effect against the proliferation of BxPC-3 cells: no significant effect
[7]
  bioavailability: low bioavailability
Panc-1 cells [4]; [8]
  effect against the proliferation of Panc-1 cells: no significant effect

From patent publication US10640466B2, “Anthracene based compounds and their uses” (UNIVERSITY OF HERTFORDSHIRE HIGHER EDUCATION CORPORATION, priority 2015, dated 2020)
